Where a name gives a salt, the structure may show the parent alone.
Legend:
[1] = test system: Reverse Passive Artus Reaction; assay: Reverse Passive Artus Reaction (II), Table 11; assay type: in vivo, Male CD rats; settings: inhibition of blueing, i.p.
Experimental: Reverse Passive Artus Reaction (II) Male CD rats weighing between 200 and 250 g were used. […] The animals were anesthetized inhalationally with isoflurane and then injected through the penile vein with 1 mL of a solution of 2.5 mg of Evan's blue dye and 5.0 mg of human serum albumin in 1 mL of saline. This treatment was followed immediately by intracutaneous injections of 0.03 mL of anti-human albumin diluted to contain 3.65 mg of antibody at 3 sites along the midline back. Anesthesia was terminated and after three hours, the animals were sacrificed. The skin was removed and the blue stained areas cut out. The skin patches were soaked overnight in stoppered tubes containing 1 mL of 1 N potassium hydroxide at 37° C. Then 9 mL of a mixture of five parts of a 0.6 N phosphoric acid and thirteen parts of acetone were added to the tubes. The tube contents were agitated and centrifuged, and the absorbance measured at 620 nm. The data were calculated as inhibition of blueing by test compound compared to control animals receiving only antigen and antibody.

[2] = test system: Ear Edema Caused by Arachidonic Acid; assay: Inhibition of Ear Edema Caused by Arachidonic Acid (II), Table 8; assay type: in vivo, CF-1 mice; settings: i.p., sixty minutes
Experimental: Inhibition of Ear Edema Caused by Arachidonic Acid (II)
CF-1 mice, 25-30 g body weight, six animals per group, were used. The requisite amount of the test compound was dissolved is dimethyl sulfoxide or 0.5% methylcellulose and 100 μL of the solution was injected intraperitoneally 30 minutes prior to the administration of 100 mg/kg of arachidponic acid. A solution of this irritant, b 100 mg/mL in ethanol, was applied to the surface of the ear, 5 μL to the upper surface and 5 μL to the lower surface. After sixty minutes, the thickness of the ear was measured to 0.01 mm by a micrometer with the loose drag positioned at the lateral-most edge of the mid-point of the pinna. Data were calculated as the percent inhibityion by the test compound of increased ear thickness compared to control animals recieveing only the irritant.

[3] = test system: Ear Edema Caused by Oxazolone; assay: Inhibition of Ear Edema Caused by Oxazolone (II), Table 10; assay type: in vivo, CF-1 mice; settings: i.p., 24 h
Experimental: Inhibition of Ear Edema Caused by Oxazolone (II)
CF-1 mice, 25-30 g body weight, five to six animals per group were used. The mice were sensitized to the irritant two weeks prior to the test by dribbling 100 μL of a 3% solution of oxazolone in acetone onto the abdominal skin of the animal. Test compounds were administered intraperitoneally as follows. […] The irritant, 3% oxazolone in acetone, was added to the surface of the ear, 5 μL added to the upper surface and 5 μL added to the lower surface. After twenty four hours, the thickness of the ear was measured to 0.01 mm by a micrometer with loose drag, positioned at the lateral-most edge of the mid-point of the pinna. Data were calculated as the inhibition of increased ear thickness compared to control animals' receiving only the irritant.

[4] = test system: Ear Edema Caused By Tetradecanoylphorbol Acetate; assay: Inhibition of Ear Edema Caused by Tetradecanoylphorbol Acetate (II), Table 7; assay type: in vivo, CF-1 Mice; settings: 3 h; for % Inhibition Intraperitoneal: i.p.
Experimental: Inhibition of Ear Edema Caused by Tetradecanoylphorbol Acetate (II)
CF-1 Mice, 25-30 g body weight, six animals per group were used. Test compounds were administered intraperitoneally or topically as follows. For intraperitoneal administration, the test compound was dissolved in dimethyl sulfoxide or 0.5% methylcellulose and 100 microliters was injected 30 minutes prior to irritant (100 mg/kg, i.p.). […] A solution of the irritant, tetradecanoylphorbol acetate, 200 μg/mL, was added to the surface of the ear, 5 μL to the upper surface and 5 μL to the lower surface. After three hours, the thickness of the ear was measured to 0.01 mm by a micrometer with loose drag, positioned at the lateral-most edge of the mid-point of the pinna. Data were calculated as the inhibition of increased ear thickness compared to control animals receiving only the irritant.

[5] = test system: Ear Edema Caused by Xylene; assay: Inhibition of Ear Edema Caused by Xylene (II), Table 9; assay type: in vivo, CF-1 mice; settings: i.p., 2 h
Experimental: Inhibition of Ear Edema Caused by Xylene (II)
CF-1 mice, 25-30 g body weight, six animals per group, were used. The requisite amount of the test compound was dissolved is dimethyl sulfoxide or 0.5% methylcellulose and 100 μL of the solution was injected intraperitoneally 30 minutes prior to the administration the irritant. The irritant xylene was applied to the surface of the ear, 20 μL to the upper surface and 20 μL to the lower surface, After two hours, the thickness of the ear was measured to 0.01 mm by a micrometer with the loose drag positioned at the lateral-most edge of the mid-point of the pinna. Data were calculated as the percent inhibition by the test compound of increased ear thickness compared to control animals receiving only the irritant.

Row | Structure (SMILES) | % Inhibition Intraperitoneal ([2]; 100 mg/kg) [%] | % Inhibition Intraperitoneal ([1]; 100 mg/kg) [%] | % Inhibition Intraperitoneal ([4]; 100 mg/kg) [%] | % Inhibition Intraperitoneal ([3]; 10 mg/kg) [%] | % Inhibition Intraperitoneal ([3]; 30 mg/kg) [%] | % Inhibition Intraperitoneal ([3]; 100 mg/kg) [%] | % Inhibition ([5]; 10 mg/kg) [%] | % Inhibition ([5]; 30 mg/kg) [%] | % Inhibition ([5]; 100 mg/kg) [%] | % Inhibition Intraperitoneal ([4]; 10 mg/kg) [%] | % Inhibition Intraperitoneal ([4]; 30 mg/kg) [%] | % Inhibition Intraperitoneal ([2]; 10 mg/kg) [%] | % Inhibition Intraperitoneal ([2]; 30 mg/kg) [%] | further results
1 | COc1ccc2c(c1)c(CC(=O)O)c(C)n2C(=O)c1ccc(Cl)cc1 [Indomethacin, reference compound] | 1 |  |  |  |  |  |  |  |  |  |  |  |  | % Inhibition Intraperitoneal ([1]; 1 mg/kg): 5%; % Inhibition Intraperitoneal ([1]; 3 mg/kg): 26%; % Inhibition Intraperitoneal ([1]; 10 mg/kg): 27%; % Inhibition Intraperitoneal ([3]; 1 mg/kg): 4%; % Inhibition Intraperitoneal ([3]; 3 mg/kg): 35%
2 | COC(=O)[C@H](CC(C)C)NC(=O)OCC1c2ccccc2-c2ccccc21 [NPC 15326, N-[(9H-Fluoren-9-ylmethoxy)carbonyl]-L-leucine methyl ester] |  | 19 |  |  |  |  |  |  |  |  |  |  |  | 
3 | CC(C)CC(CO)NC(=O)OCC1c2ccccc2-c2ccccc21 (centres unmarked) [NPC 15427, 2-{N-[(9H-Fluoren-9-ylmethoxy)carbonyl]amino}-4-methylpentanol] |  | 14 |  |  |  |  |  |  |  |  |  |  |  | 
4 | CC(C)C[C@H](NC(=O)OCC1c2ccccc2-c2ccccc21)C(=O)OCC(O)CO (some centres unmarked) [NPC 15430] |  | 48 |  |  |  |  |  |  |  |  |  |  |  | 
5 | CC(C)C[C@H](NC(=O)CCC1c2ccccc2-c2ccccc21)C(=O)O [NPC 15476, N-[3-(9H-Fluoren-9-yl)propionyl]-L-leucine] |  | 56 | 64 | 0 | 5 | 43 |  |  |  |  |  |  |  | 
6 | Cc1ccc2c(c1)C(COC(=O)N[C@@H](CC(C)C)C(=O)O)c1ccccc1-2 (stereo partly drawn) [NPC 15477, N-{[9H-(2-Methylfluoren-9-yl)methoxy]carbonyl}-L-leucine] | 82 | 53 | 72 | 3 | 14 | 43 | 41 | 53 | 69 | 35 | 37 | 10 | 58 | 
7 | COc1ccc2c(c1)C(COC(=O)N[C@@H](CC(C)C)C(=O)O)c1ccccc1-2 (stereo partly drawn) [NPC 15489, N-[(2-Methoxyfluoren-9-ylmethoxy)carbonyl]-L-leucine] |  | 64 |  |  |  |  |  |  |  |  |  |  |  | 
8 | CC(C)C[C@H](NC(=O)OCCC1c2ccccc2-c2ccccc21)C(=O)O [NPC 15521, N-[(9H-Fluoren-9-ylethoxy)carbonyl]-L-leucine] | 69 | 63 | 77 | 39 | 45 | 74 | 20 | 15 | 57 | 33 | 37 | 34 | 41 | 
9 | CC(C)C[C@H](NC(=O)OCC1c2ccccc2-c2ccccc21)C(=O)OC(C)(C)C [NPC 15527, N-[(9H-Fluoren-9-ylmethoxy)carbonyl]-L-leucine t-butyl ester] |  | 4 | 74 | 31 | 33 |  | 42 | 34 | 50 | 54 | 54 | 21 | 47 | % Inhibition Intraperitoneal ([2]; 110 mg/kg (so in the source)): 68%; % Inhibition Intraperitoneal ([3]; 110 mg/kg (so in the source)): 54%
10 | CNC(=O)[C@H](CC(C)C)NC(=O)OCC1c2ccccc2-c2ccccc21 [NPC 15529, N-[(9H-Fluoren-9-ylmethoxy)carbonyl]-L-leucine methylamide] | 29 | 0 | 78 | 32 | 41 | 76 | 50 | 47 | 50 | 67 | 67 | 16 | 32 | 
11 | CC(C)(C)[C@H](NC(=O)OCC1c2ccccc2-c2ccccc21)C(=O)O [NPC 15573, N-[(9H-Fluoren-9-ylmethoxy)carbonyl]-L-tert-leucine] | 42 | 50 | 75 |  | 28 | 48 | 23 | 17 |  | 39 | 52 | 27 | 32 | % Inhibition, topical ([4]; dose 10 (mg/kg)): 20%; % Inhibition, topical ([4]; dose 30 (mg/kg)): 31%; % Inhibition, topical ([4]; dose 100 (mg/kg)): 38%
12 | Cc1cccc2c1C(COC(=O)N[C@@H](CC(C)C)C(=O)O)c1ccccc1-2 (stereo partly drawn) [NPC 15638, N-{[9H-(1-Methylfluoren-9-yl)methoxy]carbonyl}-L-leucine] | 65 | 68 | 62 |  | 67 | 74 | 37 | 66 | 82 | 23 | 12 |  |  | 
13 | Cc1cccc2c1-c1c(C)cccc1C2COC(=O)N[C@@H](CC(C)C)C(=O)O [NPC 15670] |  | 82 | 150 | -36 | 43 |  | 78 | 46 | 50 | 27 | 117 |  |  | 
14 | CC(C)C[C@H](NC(=O)CCC1c2ccccc2-c2ccccc21)C(=O)O [NPC 15672, N-{9H-[3-Fluorenyl-9)propionyl]}-L-leucine, sodium salt] |  |  |  |  |  |  |  |  |  | 54 | 21 |  |  | % Inhibition Intraperitoneal ([1]; 100 mg/kg, sodium salt): 34%; % Inhibition Intraperitoneal ([4]; 100 mg/kg, sodium salt): 66%; % Inhibition Intraperitoneal ([3]; 10 mg/kg, sodium salt): 11%; % Inhibition Intraperitoneal ([3]; 30 mg/kg, sodium salt): 19%; % Inhibition Intraperitoneal ([3]; 100 mg/kg, sodium salt): 35%
